Measured values from patent US20230312576A1, “4-(7H-PYRROLO[2,3-D]PYRIMIDIN-4-YL)-3,6-DIHYDROPYRIDINE-1-(2H)-CARBOXAMIDE DERIVATIVES AS LIMK AND/OR ROCK KINASES INHIBITORS FOR USE IN THE TREATMENT OF CANCER” (CENTRE NATIONAL DE LA RECHERCHE SCIENTIFIQUE, priority 2020, published 2023).
Like-named read-outs stand apart in the source and are kept apart here.

Tests used:
ROCK1 = ROCK1 (Homo sapiens (Human), UniProt Q13464); test: Z'Lyte assay, ROCK1 inhibition at a single concentration; assay type: biochemical
ROCK2 = ROCK2 (Homo sapiens (Human), UniProt O75116); test: Z'Lyte assay, ROCK2 inhibition at a single concentration; assay type: biochemical
[1] = test system: cofilin phosphorylation, HeLa cells; test: Cofilin phosphorylation by Western Blot (anti-phospho-Ser3-cofilin) in HeLa cells; assay type: cell-based; conditions: Homo sapiens, 2 h
[2] = test system: cofilin phosphorylation, MPNST88-14 cells; test: Cofilin phosphorylation by Western Blot in MPNST88-14 cells; assay type: cell-based
LIMK1 = LIMK1 (Homo sapiens (Human), UniProt P53667); test: Lanthascreen Eu binding assay (TR-FRET), inhibition of LIMK1
LIMK2 = LIMK2 (Homo sapiens (Human), UniProt P53671); test: Lanthascreen Eu binding assay (TR-FRET), inhibition of LIMK2
[3] = read-out: % inhibition (ROCK1) 1 uM
[4] = read-out: % inhibition (ROCK2) 1 uM
[5] = HeLa, read-out: % inhibition Cofilin phosphorylation HeLa cells treated 2 h with 25 uM of inhibitor
[6] = HeLa, read-out: % inhibition of cofilin phosphorylation in HeLa cells (treatment 2 h, at 25 μM)
[7] = 2 h, read-out: % inhibition Cofilin phosphorylation MPNST88-14 cells treated 2 h with 25 uM of inhibitor
[8] = read-out: % inhibition Cofilin phosphorylation HeLa cells treated 2 h with 25 uM of inhibitor, HeLa cells, 25 uM
[9] = read-out: % inhibition Cofilin phosphorylation MPNST88-14 cells treated 2 h with 25 uM of inhibitor, MPNST88-14 cells, 25 uM
[10] = read-out: % inhibition (ROCK1) 1 uM, 1 uM
[11] = read-out: % inhibition (ROCK2) 1 uM, 1 uM
[12] = HeLa, read-out: % inhibition of cofilin phosphorylation in HeLa cells (treatment 2 h, at 25 μM), Table 2, normalized to the control condition DMSO

Sequence of LIMK2 (P53671 whole entry): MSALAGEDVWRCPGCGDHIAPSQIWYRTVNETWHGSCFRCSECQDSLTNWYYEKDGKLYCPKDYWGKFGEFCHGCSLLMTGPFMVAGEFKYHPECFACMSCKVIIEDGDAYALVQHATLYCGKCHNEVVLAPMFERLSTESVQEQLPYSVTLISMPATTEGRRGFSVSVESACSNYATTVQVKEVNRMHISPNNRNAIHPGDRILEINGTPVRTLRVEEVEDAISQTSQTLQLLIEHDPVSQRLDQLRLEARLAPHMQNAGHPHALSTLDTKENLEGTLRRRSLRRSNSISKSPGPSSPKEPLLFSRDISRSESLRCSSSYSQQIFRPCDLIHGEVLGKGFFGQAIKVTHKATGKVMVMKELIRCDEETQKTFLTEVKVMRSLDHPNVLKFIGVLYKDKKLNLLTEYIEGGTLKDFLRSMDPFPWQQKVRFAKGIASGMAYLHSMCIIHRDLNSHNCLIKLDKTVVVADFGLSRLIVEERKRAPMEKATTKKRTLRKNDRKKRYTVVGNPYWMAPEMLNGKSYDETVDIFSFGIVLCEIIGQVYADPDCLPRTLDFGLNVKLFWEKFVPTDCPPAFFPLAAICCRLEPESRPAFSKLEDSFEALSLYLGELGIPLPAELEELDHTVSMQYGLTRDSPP
Sequence of ROCK1 (Q13464 whole entry): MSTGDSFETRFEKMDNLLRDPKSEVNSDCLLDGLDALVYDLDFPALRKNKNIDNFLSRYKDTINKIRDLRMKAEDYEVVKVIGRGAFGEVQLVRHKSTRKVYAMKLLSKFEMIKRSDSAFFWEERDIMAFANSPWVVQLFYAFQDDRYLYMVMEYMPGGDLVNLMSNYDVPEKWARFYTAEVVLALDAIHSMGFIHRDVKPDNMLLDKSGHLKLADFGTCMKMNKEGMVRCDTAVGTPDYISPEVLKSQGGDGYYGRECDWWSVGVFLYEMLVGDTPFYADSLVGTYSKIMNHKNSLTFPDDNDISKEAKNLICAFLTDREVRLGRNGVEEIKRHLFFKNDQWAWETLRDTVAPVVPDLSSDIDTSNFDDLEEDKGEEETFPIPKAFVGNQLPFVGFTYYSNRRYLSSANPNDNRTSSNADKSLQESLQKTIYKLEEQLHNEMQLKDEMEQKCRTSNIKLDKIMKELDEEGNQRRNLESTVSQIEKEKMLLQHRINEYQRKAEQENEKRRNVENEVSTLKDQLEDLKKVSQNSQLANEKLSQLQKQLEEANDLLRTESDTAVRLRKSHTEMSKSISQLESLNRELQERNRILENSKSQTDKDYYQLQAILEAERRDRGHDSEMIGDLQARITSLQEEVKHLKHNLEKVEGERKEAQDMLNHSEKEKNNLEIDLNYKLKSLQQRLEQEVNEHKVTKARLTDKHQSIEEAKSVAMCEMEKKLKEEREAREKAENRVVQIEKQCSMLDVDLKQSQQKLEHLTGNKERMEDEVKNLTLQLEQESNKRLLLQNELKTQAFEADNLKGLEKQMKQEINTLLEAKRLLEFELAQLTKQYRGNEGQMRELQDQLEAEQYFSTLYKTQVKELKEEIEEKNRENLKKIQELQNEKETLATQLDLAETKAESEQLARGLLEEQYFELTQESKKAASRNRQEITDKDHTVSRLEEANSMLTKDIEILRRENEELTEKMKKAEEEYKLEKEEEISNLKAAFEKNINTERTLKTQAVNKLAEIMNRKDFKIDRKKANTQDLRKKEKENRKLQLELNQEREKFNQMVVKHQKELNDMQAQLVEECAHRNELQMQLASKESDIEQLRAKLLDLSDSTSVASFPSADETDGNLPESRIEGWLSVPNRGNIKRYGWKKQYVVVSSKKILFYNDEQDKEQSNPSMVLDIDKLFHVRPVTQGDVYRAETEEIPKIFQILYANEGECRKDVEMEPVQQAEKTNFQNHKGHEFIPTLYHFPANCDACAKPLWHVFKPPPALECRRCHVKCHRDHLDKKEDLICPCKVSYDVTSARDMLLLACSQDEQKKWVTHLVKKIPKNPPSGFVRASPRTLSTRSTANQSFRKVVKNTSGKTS
Sequence of ROCK2 (O75116 whole entry): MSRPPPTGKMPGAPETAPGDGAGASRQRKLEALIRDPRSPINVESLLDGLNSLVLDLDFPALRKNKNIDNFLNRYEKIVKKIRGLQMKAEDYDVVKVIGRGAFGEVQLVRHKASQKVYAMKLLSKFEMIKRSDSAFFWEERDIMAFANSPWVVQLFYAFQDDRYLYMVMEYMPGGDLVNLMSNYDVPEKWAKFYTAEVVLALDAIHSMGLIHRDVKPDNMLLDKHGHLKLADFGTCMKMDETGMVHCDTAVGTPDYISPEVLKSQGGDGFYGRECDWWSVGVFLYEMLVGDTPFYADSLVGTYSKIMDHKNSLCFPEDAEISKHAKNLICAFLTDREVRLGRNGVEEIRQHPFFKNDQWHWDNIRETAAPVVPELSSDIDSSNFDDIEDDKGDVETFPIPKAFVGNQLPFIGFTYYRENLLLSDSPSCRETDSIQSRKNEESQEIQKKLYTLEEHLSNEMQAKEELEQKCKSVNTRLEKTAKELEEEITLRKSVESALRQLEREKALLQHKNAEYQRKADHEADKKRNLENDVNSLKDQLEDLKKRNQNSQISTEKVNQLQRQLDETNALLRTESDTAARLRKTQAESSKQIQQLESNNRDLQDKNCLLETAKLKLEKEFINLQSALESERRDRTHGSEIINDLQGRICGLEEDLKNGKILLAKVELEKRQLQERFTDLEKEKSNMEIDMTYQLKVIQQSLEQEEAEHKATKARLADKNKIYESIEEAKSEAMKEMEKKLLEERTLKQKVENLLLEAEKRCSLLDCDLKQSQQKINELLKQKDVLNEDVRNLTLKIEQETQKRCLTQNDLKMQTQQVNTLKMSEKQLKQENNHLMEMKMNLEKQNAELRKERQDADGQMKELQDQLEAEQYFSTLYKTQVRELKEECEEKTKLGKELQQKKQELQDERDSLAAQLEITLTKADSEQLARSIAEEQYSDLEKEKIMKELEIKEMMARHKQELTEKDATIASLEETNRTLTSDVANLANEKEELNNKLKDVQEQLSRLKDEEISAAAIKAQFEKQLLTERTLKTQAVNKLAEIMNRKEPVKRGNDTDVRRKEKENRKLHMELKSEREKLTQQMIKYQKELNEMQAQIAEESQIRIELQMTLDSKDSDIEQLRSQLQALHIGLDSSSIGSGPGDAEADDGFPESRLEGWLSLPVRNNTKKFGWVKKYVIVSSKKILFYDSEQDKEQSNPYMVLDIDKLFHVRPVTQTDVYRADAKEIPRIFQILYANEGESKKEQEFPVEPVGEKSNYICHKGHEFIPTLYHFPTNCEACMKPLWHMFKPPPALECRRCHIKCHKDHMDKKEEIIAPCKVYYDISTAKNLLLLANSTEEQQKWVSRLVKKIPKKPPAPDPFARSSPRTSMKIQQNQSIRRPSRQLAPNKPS
Sequence of LIMK1 (P53667 whole entry): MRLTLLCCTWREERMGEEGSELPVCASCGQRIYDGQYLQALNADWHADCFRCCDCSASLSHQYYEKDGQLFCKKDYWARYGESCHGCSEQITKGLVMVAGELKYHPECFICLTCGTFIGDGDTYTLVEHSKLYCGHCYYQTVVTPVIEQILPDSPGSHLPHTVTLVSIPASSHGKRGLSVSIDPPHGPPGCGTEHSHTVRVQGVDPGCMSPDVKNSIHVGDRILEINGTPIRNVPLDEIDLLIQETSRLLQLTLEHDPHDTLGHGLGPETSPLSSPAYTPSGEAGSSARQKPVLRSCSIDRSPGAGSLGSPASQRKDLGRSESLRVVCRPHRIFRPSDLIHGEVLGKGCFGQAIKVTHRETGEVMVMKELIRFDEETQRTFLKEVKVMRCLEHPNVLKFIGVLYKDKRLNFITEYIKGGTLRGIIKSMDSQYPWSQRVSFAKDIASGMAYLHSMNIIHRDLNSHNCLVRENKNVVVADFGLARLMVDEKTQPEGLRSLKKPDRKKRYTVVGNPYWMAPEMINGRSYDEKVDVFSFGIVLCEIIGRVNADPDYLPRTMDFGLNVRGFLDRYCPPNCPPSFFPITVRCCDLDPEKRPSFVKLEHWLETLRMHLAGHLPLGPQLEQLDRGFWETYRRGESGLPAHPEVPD

Row | Ki (LIMK1; Lanthascreen Eu binding assay) [nM] | Ki (LIMK2; Lanthascreen Eu binding assay) [nM] | inhibition at 1 µM (ROCK1; [10]) [%] | inhibition at 1 µM (ROCK2; [11]) [%] | Compound | inhibition at 1 µM (ROCK1; [3]) [%] | inhibition at 1 µM (ROCK2; [4]) [%] | inhibition at 25 µM [1, 5] [%] | inhibition at 25 µM [1, 6] [%] | inhibition at 25 µM [2, 7] [%] | inhibition at 25 µM [1, 8] [%] | inhibition at 25 µM [2, 9] [%] | inhibition at 25 µM [1, 12] [%] | Ki (LIMK1) [nM] | Ki (LIMK2) [nM]
1 | – | – | – | – | Cc1c[nH]c2ncnc(C3=CC(C)N(C(=O)Nc4cccc(Cl)c4)C(C)C3)c12 (centres unmarked) [Compound 58, N-(3-Chlorophenyl)-2,6-dimethyl-4-(5-methyl-7H-pyrrolo[2,3-d]pyrimidin-4-yl)-3,6-dihydropyridine-1(2H)-carboxamide] | 34 | 32 | 91.4 | 91.4 | 77.3 | – | – | – | – | –
2 | – | – | – | – | Cc1c[nH]c2ncnc(C3=CC(C)N(C(=O)Nc4cccc(Br)c4)C(C)C3)c12 (centres unmarked) [Compound 59, N-(3-Bromophenyl)-2,6-dimethyl-4-(5-methyl-7H-pyrrolo[2,3-d]pyrimidin-4-yl)-3,6-dihydropyridine-1(2H)-carboxamide] | 34 | 40 | 93.6 | 93.6 | 74.7 | – | – | – | – | –
3 | 26.7 | 87.5 | 26 | 0 | O=C(Nc1cccc(N2CCOCC2)c1)N1CC=C(c2ncnc3[nH]c4c(c23)CCC4)CC1 [Compound 130, N-(3-morpholinophenyl)-4-(7,9,11-triazatricyclo[6.4.0.02,6]dodeca-1(8),2(6),9,11-tetraen-12-yl)-3,6-dihydropyridine-1(2H)-carboxamide] | – | – | – | – | – | 79.2 | – | 79.2 | – | –
4 | 52.7 | 78.6 | 5 | 7 | O=C(Nc1cccc(F)c1)N1CC=C(c2ncnc3[nH]c4c(c23)CSCC4)CC1 [Compound 154, N-(3-Fluorophenyl)-4-(5,7,8,9-tetrahydrothiopyrano[3′,4′:4,5]pyrrolo[2,3-d]pyrimidin-4-yl)-3,6-dihydropyridine-1(2H)-carboxamide] | – | – | – | – | – | 66.9 | 57.7 | – | – | –
5 | – | – | – | – | O=C(Nc1cccc(Br)c1)N1CC=C(c2ncnc3[nH]c4c(c23)CSCC4)CC1 [Compound 156, N-(3-Bromophenyl)-4-(5,7,8,9-tetrahydrothiopyrano [3′,4′:4,5]pyrrolo[2,3-d]pyrimidin-4-yl)-3,6-dihydropyridine-1(2H)-carboxamide] | 3 | 15 | 68.2 | – | 61.6 | – | – | – | 41.4 | 31.5
6 | 22.1 | 36.2 | -14 | -3 | COCOCc1cccc(NC(=O)N2CC=C(c3ncnc4[nH]c5c(c34)CCC5)CC2)c1 [Compound 135, N-[3-(Methoxymethoxymethyl)phenyl]-4-(7,9,11-triaza-tricyclo[6.4.0.02,6]dodeca-1(8),2(6),9,11-tetraen-12-yl)-3,6-dihydropyridine-1(2H)-carboxamide] | – | – | – | – | – | 85 | – | 85 | – | –
7 | 36.1 | 33.4 | -20 | -5 | CN(C)C(=O)c1cccc(NC(=O)N2CC=C(c3ncnc4[nH]c5c(c34)CCC5)CC2)c1 [Compound 134, N-[3-(Dimethylcarbamoyl)phenyl]-4-(7,9,11-triazatricyclo [6.4.0.02,6]dodeca-1(8),2(6),9,11-tetraen-12-yl)-3,6-dihydropyridine-1(2H)-carboxamide] | – | – | – | – | – | 77.1 | – | 77.1 | – | –
8 | 7.13 | 25.6 | 7 | 4 | O=C(Nc1cccc(F)c1)N1CC=C(c2ncnc3[nH]c4c(c23)CCCC4)CC1 [Compound 113, N-(3-Fluorophenyl)-4-(6,7,8,9-tetrahydro-5H-pyrimido[4,5-b]indol-4-yl)-3,6-dihydropyridine-1(2H)-carboxamide] | – | – | – | – | – | 87 | – | – | – | –
9 | 2.75 | 21.6 | 6 | 11 | COc1ccc(-c2cccc(NC(=O)N3CC=C(c4ncnc5[nH]c6c(c45)CCC6)CC3)c2)cc1 [Compound 136, N-[3-(4-Methoxyphenyl)phenyl]-4-(7,9,11-triaza-tricyclo[6.4.0.02,6]dodeca-1(8),2(6),9,11-tetraen-12-yl)-3,6-dihydropyridine-1(2H)-carboxamide] | – | – | – | – | – | 85.5 | – | 85.5 | – | –
10 | – | – | – | – | O=C(Nc1cccc(Br)c1)N1CC=C(c2ncnc3[nH]c4c(c23)CCC4)CC1 [Compound 112, N-(3-Bromophenyl)-4-(5,6,7,8-tetrahydrocyclopenta[4,5]pyrrolo[2,3-d]pyrimidin-4-yl)-3,6-dihydropyridine-1(2H)-carboxamide] | 8 | 13 | 84.5 | 84.5 | – | – | – | – | 7 | 24
11 | 16.6 | 54.9 | 18 | 11 | CCc1cccc(NC(=O)N2CC=C(c3ncnc4[nH]c5c(c34)CCC5)CC2)c1 [Compound 129, N-(3-Ethylphenyl)-4-(7,9,11-triazatricyclo[6.4.0.02,6]dodeca-1(8),2(6),9,11-tetraen-12-yl)-3,6-dihydropyridine-1(2H)-carboxamide] | – | – | – | – | – | 84.5 | – | 84.5 | – | –
12 | – | – | – | – | O=C(Nc1cccc(Br)c1)N1CC=C(c2ncnc3[nH]c4c(c23)COCC4)CC1 [Compound 159, N-(3-Bromophenyl)-4-(5,7,8,9-tetrahydropyrano[3′,4′:4,5]pyrrolo[2,3-d]pyrimidin-4-yl)-3,6-dihydropyridine-1(2H)-carboxamide] | 11 | 3 | 70.3 | – | 64.3 | – | – | – | 51 | 51.5
13 | 16.5 | 64 | -8 | -7 | O=C(Nc1cccc(F)c1)N1CC=C(c2ncnc3[nH]c4c(c23)CCCCC4)CC1 [Compound 116, N-(3-Fluorophenyl)-4-(5,6,7,8,9,10-hexahydrocyclohepta[4,5]pyrrolo[2,3-d]pyrimidin-4-yl)-3,6-dihydropyridine-1(2H)-carboxamide] | – | – | – | – | – | 73.1 | – | 73.1 | – | –
14 | 46.9 | 8.73 | 14 | 1 | CN(C)C(=O)Nc1cccc(NC(=O)N2CC=C(c3ncnc4[nH]c5c(c34)CCC5)CC2)c1 [Compound 131, N-[3-(Dimethylcarbamoylamino)phenyl]-4-(7,9,11-triaza-tricyclo[6.4.0.02,6]dodeca-1(8),2(6),9,11-tetraen-12-yl)-3,6-dihydropyridine-1(2H)-carboxamide] | – | – | – | – | – | 82.9 | – | 82.9 | – | –

Row | Compound | Ki (LIMK1; Lanthascreen Eu binding assay) [nM] | Ki (LIMK2; Lanthascreen Eu binding assay) [nM] | inhibition at 1 µM (ROCK1; [10]) [%] | inhibition at 1 µM (ROCK2; [11]) [%] | inhibition at 1 µM (ROCK1; [3]) [%] | inhibition at 1 µM (ROCK2; [4]) [%] | inhibition at 25 µM [1, 5] [%] | inhibition at 25 µM [1, 6] [%] | inhibition at 25 µM [2, 7] [%] | inhibition at 25 µM [1, 8] [%] | inhibition at 25 µM [2, 9] [%] | inhibition at 25 µM [1, 12] [%] | Ki (LIMK1) [nM] | Ki (LIMK2) [nM]
15 | O=C(Nc1cccc(Cl)c1)N1CC=C(c2ncnc3[nH]c4c(c23)CSCC4)CC1 [Compound 155, N-(3-Chlorophenyl)-4-(5,7,8,9-tetrahydrothiopyrano [3′,4′:4,5]pyrrolo[2,3-d]pyrimidin-4-yl)-3,6-dihydropyridine-1(2H)-carboxamide] | 94.1 | 94.2 | – | – | 10 | 14 | – | – | – | 72.8 | 57.7 | – | – | –
16 | O=C(Nc1cccc(Cl)c1)N1CC=C(c2ncnc3[nH]c4c(c23)COCC4)CC1 [Compound 158, N-(3-Chlorophenyl)-4-(5,7,8,9-tetrahydropyrano[3′,4′:4,5]pyrrolo[2,3-d]pyrimidin-4-yl)-3,6-dihydropyridine-1(2H)-carboxamide] | 65.6 | 93 | – | – | 2 | 1 | – | – | – | 65.3 | 59.8 | – | – | –
17 | O=C(Nc1ccccc1)N1CC=C(c2ncnc3[nH]c4c(c23)CCC4)CC1 [Compound 119, N-Phenyl-4-(5,6,7,8-tetrahydrocyclopenta[4,5]pyrrolo[2,3-d]pyrimidin-4-yl)-3,6-dihydropyridine-1(2H)-carboxamide] | 7.98 | 30.4 | – | – | 0 | 11 | – | – | – | 64.1 | – | – | – | –
18 | O=C(Nc1cccc(Cl)c1)N1CC=C(c2ncnc3[nH]c4c(c23)CCCCC4)CC1 [Compound 117, N-(3-Chlorophenyl)-4-(5,6,7,8,9,10-hexahydrocyclohepta[4,5]pyrrolo[2,3-d]pyrimidin-4-yl)-3,6-dihydropyridine-1(2H)-carboxamide] | 22 | 61.3 | – | – | 4 | 7 | – | – | – | 69.2 | – | – | – | –
19 | O=C(Nc1cccc(Cl)c1)N1CC=C(c2ncnc3[nH]c4c(c23)CCCC4)CC1 [Compound 114, N-(3-Chlorophenyl)-4-(6,7,8,9-tetrahydro-5H-pyrimido[4,5-b]indol-4-yl)-3,6-dihydropyridine-1(2H)-carboxamide] | 9.98 | 25.5 | – | – | 4 | 8 | – | – | – | 89.3 | 74.7 | 89.3 | – | –
